US12077503B2, “Substituted cyclic amides and their use as herbicides” (FMC CORPORATION, priority 2015, dated 2024)

Experiments:
Assay type in all cases: in vivo
[1] = test system: giant foxtail (Setaria faberi); experiment: Test G Pre-Emergence Protocol; conditions: Setaria faberi, pre-emergence, 312 h, evaluated after 13 days; for pest or weed control at 15.625 g/ha: 15.625 g ai/ha; for pest or weed control at 15.625 g/ha / pest or weed control at 250 g/ha: read-out: Foxtail, Giant damage rating (100=total damage to plant; 0=no damage to plant); for pest or weed control at 62.5 g/ha: 62.5 g ai/ha, 100=total damage to plant, 0=no damage to plant, read-out: plant damage rating, Foxtail, Giant; for pest or weed control at 250 g/ha: 250 g ai/ha
Procedure, shortened: (§1)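 Test compound in 0.5% Tween 20 acetone/water (50:50) was applied at three rates (15.625, 62.5, 250 g/ha) to soil sown one day earlier. After 13 days plants were scored for injury, where 0 means unaffected and 100 means completely damaged.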

[2] = test system: barnyardgrass (Echinochloa crus-galli); experiment: Test G Pre-Emergence Protocol; conditions: Echinochloa crus-galli, pre-emergence, 312 h, evaluated after 13 days; for pest or weed control at 15.625 g/ha: 15.625 g ai/ha, read-out: Barnyard grass damage rating (100=total damage to plant; 0=no damage to plant); for pest or weed control at 62.5 g/ha: 62.5 g ai/ha, 100=total damage to plant, 0=no damage to plant, read-out: plant damage rating, Barnyardgrass; for pest or weed control at 250 g/ha: 250 g ai/ha, read-out: Barnyardgrass damage rating (100=total damage to plant; 0=no damage to plant)
Procedure, shortened: as §1

[3] = test system: redroot pigweed (Amaranthus retroflexus); experiment: Test G Pre-Emergence Protocol; conditions: Amaranthus retroflexus, pre-emergence, 312 h, evaluated after 13 days; for pest or weed control at 15.625 g/ha: 15.625 g ai/ha; for pest or weed control at 15.625 g/ha / pest or weed control at 250 g/ha: read-out: Pigweed, Redroot damage rating (100=total damage to plant; 0=no damage to plant); for pest or weed control at 62.5 g/ha: 62.5 g ai/ha, 100=total damage to plant, 0=no damage to plant, read-out: plant damage rating, Pigweed, Redroot; for pest or weed control at 250 g/ha: 250 g ai/ha
Procedure, shortened: as §1

[4] = test system: ivy-leaved morning glory (Ipomoea hederacea); experiment: Test G Pre-Emergence Protocol; conditions: Ipomoea, pre-emergence, 312 h, evaluated after 13 days; for pest or weed control at 15.625 g/ha: 15.625 g ai/ha, read-out: Morning-glory, Ivy-leaved damage rating (100=total damage to plant; 0=no damage to plant); for pest or weed control at 62.5 g/ha: 62.5 g ai/ha, 100=total damage to plant, 0=no damage to plant, read-out: plant damage rating, Morningglory, Ivy-leaved; for pest or weed control at 250 g/ha: 250 g ai/ha, read-out: Morningglory, Ivy-leaved damage rating (100=total damage to plant; 0=no damage to plant)
Procedure, shortened: as §1

[5] = test system: velvetleaf (Abutilon theophrasti); experiment: Test G Pre-Emergence Protocol; conditions: Abutilon theophrasti, pre-emergence, 312 h, evaluated after 13 days; for pest or weed control at 15.625 g/ha: 15.625 g ai/ha; for pest or weed control at 15.625 g/ha / pest or weed control at 250 g/ha: read-out: Velvetleaf damage rating (100=total damage to plant; 0=no damage to plant); for pest or weed control at 62.5 g/ha: 62.5 g ai/ha, 100=total damage to plant, 0=no damage to plant, read-out: plant damage rating, Velvetleaf; for pest or weed control at 250 g/ha: 250 g ai/ha
Procedure, shortened: as §1

[6] = test system: corn (Zea mays); experiment: Test G Pre-Emergence Protocol; conditions: Zea mays, pre-emergence, 312 h, evaluated after 13 days; for plant injury at 15.625 g/ha: 15.625 g ai/ha; for plant injury at 15.625 g/ha / plant injury at 250 g/ha: read-out: Corn damage rating (100=total damage to plant; 0=no damage to plant); for plant injury at 62.5 g/ha: 62.5 g ai/ha, 100=total damage to plant, 0=no damage to plant, read-out: plant damage rating, Corn; for plant injury at 250 g/ha: 250 g ai/ha
Procedure, shortened: as §1

[7] = test system: giant foxtail (Setaria faberi); experiment: Test G Post-Emergence Protocol; conditions: Setaria faberi, post-emergence, 312 h; for pest or weed control at 15.625 g/ha: 15.625 g ai/ha, evaluated after 13 days (100=total damage to plant; 0=no damage to plant), read-out: Foxtail, Giant damage rating; for pest or weed control at 62.5 g/ha: 62.5 g ai/ha, read-out: Foxtail, Giant damage rating (100=total damage to plant; 0=no damage to plant); for pest or weed control at 62.5 g/ha / pest or weed control at 250 g/ha: evaluated after 13 days; for pest or weed control at 250 g/ha: 250 g ai/ha, read-out: damage to plant, Foxtail, Giant (100=total damage to plant; 0=no damage to plant)
Procedure, shortened: (§2)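 Eight days post-sowing, plants received a spray of test compound (acetone/water 50:50, 0.5% Tween 20) at 15.625, 62.5 or 250 g/ha. Glasshouse regime thereafter: 24/16 °C, 14 h light, 65% humidity. Assessment after 13 days on a 0–100 damage scale.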

[8] = test system: barnyardgrass (Echinochloa crus-galli); experiment: Test G Post-Emergence Protocol; conditions: Echinochloa crus-galli, post-emergence, 312 h; for pest or weed control at 15.625 g/ha: 15.625 g ai/ha, evaluated after 13 days (100=total damage to plant; 0=no damage to plant), read-out: Barnyardgrass damage rating; for pest or weed control at 62.5 g/ha: 62.5 g ai/ha, read-out: Barnyardgrass damage rating (100=total damage to plant; 0=no damage to plant); for pest or weed control at 62.5 g/ha / pest or weed control at 250 g/ha: evaluated after 13 days; for pest or weed control at 250 g/ha: 250 g ai/ha, read-out: damage to plant, Barnyardgrass (100=total damage to plant; 0=no damage to plant)
Procedure, shortened: as §2

[9] = test system: redroot pigweed (Amaranthus retroflexus); experiment: Test G Post-Emergence Protocol; conditions: Amaranthus retroflexus, post-emergence, 312 h; for pest or weed control at 15.625 g/ha: 15.625 g ai/ha, evaluated after 13 days (100=total damage to plant; 0=no damage to plant), read-out: Pigweed, Redroot damage rating; for pest or weed control at 62.5 g/ha: 62.5 g ai/ha, read-out: Pigweed, Redroot damage rating (100=total damage to plant; 0=no damage to plant); for pest or weed control at 62.5 g/ha / pest or weed control at 250 g/ha: evaluated after 13 days; for pest or weed control at 250 g/ha: 250 g ai/ha, read-out: damage to plant, Pigweed, Redroot (100=total damage to plant; 0=no damage to plant)
Procedure, shortened: as §2

[10] = test system: ivy-leaved morning glory (Ipomoea hederacea); experiment: Test G Post-Emergence Protocol; conditions: Ipomoea, post-emergence, 312 h; for pest or weed control at 15.625 g/ha: 15.625 g ai/ha, evaluated after 13 days (100=total damage to plant; 0=no damage to plant), read-out: Morningglory, Ivy-leaved damage rating; for pest or weed control at 62.5 g/ha: 62.5 g ai/ha, read-out: Morningglory, Ivy-leaved damage rating (100=total damage to plant; 0=no damage to plant); for pest or weed control at 62.5 g/ha / pest or weed control at 250 g/ha: evaluated after 13 days; for pest or weed control at 250 g/ha: 250 g ai/ha, read-out: damage to plant, Morningglory, Ivy-leaved (100=total damage to plant; 0=no damage to plant)
Procedure, shortened: as §2

[11] = test system: velvetleaf (Abutilon theophrasti); experiment: Test G Post-Emergence Protocol; conditions: Abutilon theophrasti, post-emergence, 312 h; for pest or weed control at 15.625 g/ha: 15.625 g ai/ha, evaluated after 13 days (100=total damage to plant; 0=no damage to plant), read-out: Velvetleaf damage rating; for pest or weed control at 62.5 g/ha: 62.5 g ai/ha, read-out: Velvetleaf damage rating (100=total damage to plant; 0=no damage to plant); for pest or weed control at 62.5 g/ha / pest or weed control at 250 g/ha: evaluated after 13 days; for pest or weed control at 250 g/ha: 250 g ai/ha, read-out: damage to plant, Velvetleaf (100=total damage to plant; 0=no damage to plant)
Procedure, shortened: as §2

[12] = test system: corn (Zea mays); experiment: Test G Post-Emergence Protocol; conditions: Zea mays, post-emergence, 312 h; for plant injury at 15.625 g/ha: 15.625 g ai/ha, evaluated after 13 days (100=total damage to plant; 0=no damage to plant), read-out: Corn damage rating; for plant injury at 62.5 g/ha: 62.5 g ai/ha, read-out: Corn damage rating (100=total damage to plant; 0=no damage to plant); for plant injury at 62.5 g/ha / plant injury at 250 g/ha: evaluated after 13 days; for plant injury at 250 g/ha: 250 g ai/ha, read-out: damage to plant, Corn (100=total damage to plant; 0=no damage to plant)
Procedure, shortened: as §2

CN1C[C@@H](c2ccc(C(F)(F)F)cc2)[C@H](C(=O)Nc2ccc(C#N)cc2Cl)C1=O (racemic) [Compound 1620]
0%: pest or weed control at 15.625 g/ha [1] | pest or weed control at 62.5 g/ha [1] | pest or weed control at 250 g/ha [1] | pest or weed control at 15.625 g/ha [2] | pest or weed control at 62.5 g/ha [2] | pest or weed control at 250 g/ha [2] | pest or weed control at 15.625 g/ha [3] | pest or weed control at 62.5 g/ha [3] | pest or weed control at 250 g/ha [3] | pest or weed control at 15.625 g/ha [4] | pest or weed control at 62.5 g/ha [4] | pest or weed control at 250 g/ha [4] | pest or weed control at 15.625 g/ha [5] | pest or weed control at 62.5 g/ha [5] | pest or weed control at 250 g/ha [5] | plant injury at 15.625 g/ha [6] | plant injury at 62.5 g/ha [6] | plant injury at 250 g/ha [6] | pest or weed control at 15.625 g/ha [7] | pest or weed control at 62.5 g/ha [7] | pest or weed control at 250 g/ha [7] | pest or weed control at 15.625 g/ha [8] | pest or weed control at 62.5 g/ha [8] | pest or weed control at 250 g/ha [8] | pest or weed control at 15.625 g/ha [9] | pest or weed control at 62.5 g/ha [9] | pest or weed control at 250 g/ha [9] | pest or weed control at 15.625 g/ha [10] | pest or weed control at 62.5 g/ha [10] | pest or weed control at 250 g/ha [10] | pest or weed control at 15.625 g/ha [11] | pest or weed control at 62.5 g/ha [11] | pest or weed control at 250 g/ha [11] | plant injury at 15.625 g/ha [12] | plant injury at 62.5 g/ha [12] | plant injury at 250 g/ha [12]

CN1C[C@@H](c2ccc(C(F)(F)F)cc2)[C@H](C(=O)Nc2nccc(=O)[nH]2)C1=O (racemic) [Compound 1622]
0%: pest or weed control at 15.625 g/ha [1] | pest or weed control at 62.5 g/ha [1] | pest or weed control at 250 g/ha [1] | pest or weed control at 15.625 g/ha [2] | pest or weed control at 62.5 g/ha [2] | pest or weed control at 250 g/ha [2] | pest or weed control at 15.625 g/ha [3] | pest or weed control at 62.5 g/ha [3] | pest or weed control at 250 g/ha [3] | pest or weed control at 15.625 g/ha [4] | pest or weed control at 62.5 g/ha [4] | pest or weed control at 250 g/ha [4] | pest or weed control at 15.625 g/ha [5] | pest or weed control at 62.5 g/ha [5] | pest or weed control at 250 g/ha [5] | plant injury at 15.625 g/ha [6] | plant injury at 62.5 g/ha [6] | plant injury at 250 g/ha [6] | pest or weed control at 15.625 g/ha [7] | pest or weed control at 62.5 g/ha [7] | pest or weed control at 250 g/ha [7] | pest or weed control at 15.625 g/ha [8] | pest or weed control at 62.5 g/ha [8] | pest or weed control at 250 g/ha [8] | pest or weed control at 15.625 g/ha [9] | pest or weed control at 62.5 g/ha [9] | pest or weed control at 250 g/ha [9] | pest or weed control at 15.625 g/ha [10] | pest or weed control at 62.5 g/ha [10] | pest or weed control at 250 g/ha [10] | pest or weed control at 15.625 g/ha [11] | pest or weed control at 62.5 g/ha [11] | pest or weed control at 250 g/ha [11] | plant injury at 15.625 g/ha [12] | plant injury at 62.5 g/ha [12] | plant injury at 250 g/ha [12]
